Assay [1] concerns IL-36β activation by activated neutrophil degranulates. Put plainly: IL-36β activation by PMA-activated neutrophil degranulates, HeLa IL-36R bioassay (cytokine ELISA). Conditions: HeLa IL36R; for inhibition of IL-36β activation by neutrophil degranulates (peptide panel): FIG. 6, 29, 30, degranulates pre-incubated 30 min on ice with peptide titration (20-0.625 μM), then IL36β 2 h at 37°, IL-6 ELISA after 24 h; for inhibition of the activation of IL-36β by activated neutrophil degranulates: FIG. 5, IL-36β pre-incubated 2 h at 37° with degranulates ± PMSF (1 mM) or Cathepsin G inhibitor 1 (10 μM), cytokine ELISA after 24 h. Background: ELISA stands for enzyme-linked immunosorbent assay.
Method: FIG. 29 are graphs showing Neutrophils degranulates pre-incubated for 30 min on ice in the presence or absence of a titration of peptide (20, 10, 5, 2.5, 1.25, 0.625 μM) followed by addition of IL36β for 2 h at 37°. HeLa^IL36R were stimulated for 24 h. IL-6 cytokine concentrations in culture supernatants were determined by ELISA. Note: Elast I-IV serves as negative controls for IL-36β assay.
Primary neutrophils were purified from donor human blood using the plasma-Percoll gradient method. Purity of cell preparations (>90%) was determined by Hematoxylin and Eosin staining of cytospins. To prepare degranulates, neutrophils (10^7 per treatment) were stimulated in the presence or absence of 50 nM PMA in HBSS/0.25% BSA for 1-3 h at 37° C. in a humidified atmosphere with 5% CO2. Supernatants were harvested and clarified by centrifugation. Degranulate aliquots were stored at −80°.
Reactions (40-100 μl final volume) were carried out in protease reaction buffer (50 mM Hepes, pH 7.4/75 mM NaCl/0.1% CHAPS) for 2 h at 37°.
Cytokines and chemokines were measured from cell culture supernatants using specific ELISA kits obtained from R&D systems (human IL-6, IL-8, CXCL1, MCP-1, IL-17C). Each assay was repeated a minimum of three times and all cytokine assays were carried out using triplicate samples from each culture.

In assay [2] the test system is IL-36α activation by activated neutrophil degranulates. As to the kind of experiment: IL-36α activation by PMA-activated neutrophil degranulates, HeLa IL-36R bioassay (cytokine ELISA). Type of assay: cell-based, human. To be noted: FIG. 5; IL-36α pre-incubated 2 h at 37° with degranulates ± PMSF (1 mM) or Cathepsin G inhibitor 1 (10 μM); HeLa IL36R, cytokine ELISA after 24 h.

Assay [3] deals with IL-36β activation by psoriatic skin eluates. As to the kind of experiment: IL-36β activation by psoriatic skin eluates, HeLa IL-36R bioassay (IL-8 ELISA). Type of assay: cell-based, human. To be noted: FIG. 40c, IL-36β 500 pM pre-incubated 2 h at 37° with eluates ± cathepsin G inhibitor 1 (10 μM). Here is the method: (§1) Fixomull (2 cm×2 cm) adhesive tape strips were applied to a healthy or psoriatic skin, under firm pressure for 10 seconds. […] Sample eluates were stored at −80° C. Enzymatic assays and bioassays were setup using control and psoriatic eluates as described above.

For assay [4], the system named is IL-36α activation by psoriatic skin eluates. Put plainly: IL-36α activation by psoriatic skin eluates, HeLa IL-36R bioassay (IL-8 ELISA). Type of assay: cell-based, human. Conditions: FIG. 40c, IL-36α 500 pM pre-incubated 2 h at 37° with eluates ± cathepsin G inhibitor 1 (10 μM). How it is done: as §1

No end group written: not given here. *: point of attachment. CH2Cl = ClC*

The results in this text go back to patent publication US10744179B2, “Method for treatment of inflammatory skin disorders with inhibitors of IL-36 proteolytic processing” (THE PROVOST, FELLOWS, FOUNDATION SCHOLARS, & THE OTHER …, priority 2014, dated 2020).

Consider “Ala-Phe-Leu-Phe-CMK (AFLF; not fully specified; C-terminal chloromethyl ketone; N-terminal Z; printed: Ala-Phe-Leu-Phe-) [AFLF-CMK]”, for which, in assay [1], the “inhibition of IL-36β activation by neutrophil degranulates (peptide panel)” value is reported as “most potent inhibitors”.
Still for that read-out and setting: for “FLF-CMK: Cathepsin G-inhibitory peptide Phe-Leu-Phe with chloromethyl ketone (CMK) at the C-terminus (Phe-Leu-Phe-CH2Cl)” the value was “most potent inhibitors”.
Turning to `O=S(=O)(F)Cc1ccccc1` [PMSF, phenylmethanesulfonylfluoride], in assay [1], the “inhibition of the activation of IL-36β by activated neutrophil degranulates” value was “robustly inhibited”. In addition, the “inhibition of the activation of IL-36α by activated neutrophil degranulates” value in assay [2] is “robustly inhibited”.
“Glu-Pro-Phe-CMK (Glu-Pro-Phe-CH2Cl) [EPF-CMK]”: the “inhibition of IL-36β activation by neutrophil degranulates (peptide panel)” value in assay [1] was “most potent inhibitors”.
In the case of `CN(C(=O)c1cc2ccccc2cc1C(=O)C(c1cccc2ccccc12)P(=O)(O)O)C1CCN(C(=O)c2ccccc2)CC1` (stereo not drawn) [Cathepsin G Inhibitor I], the “inhibition of the activation of IL-36β by activated neutrophil degranulates” value in assay [1] is on record as “robustly inhibited”. For the same compound, the “attenuation of IL-36β activation by psoriatic skin eluates” value in assay [3] was “attenuated”. The “attenuation of IL-36α activation by psoriatic skin eluates” value in assay [4] is recorded as “attenuated”. The “inhibition of the activation of IL-36α by activated neutrophil degranulates” value in assay [2] was “robustly inhibited”.
